Experimental data reported in ChEMBL document CHEMBL1275467, “Spread of OXA-48-positive carbapenem-resistant Klebsiella pneumoniae isolates in Istanbul, Turkey” (2008).
Values after ≈ are worked out from the molar mass of the structure shown.

Test system: Klebsiella pneumoniae
Experiment: Antimicrobial activity against Klebsiella pneumoniae containing PFGE clone B expressing beta-lactamase Oxa-48, TEM-1, CTX-M-15 and Oxa-1 by Etest
Type: functional

Which MIC does the source give for `CC(C)(O/N=C(\C(=O)N[C@@H]1C(=O)N2C(C(=O)[O-])=C(C[n+]3ccccc3)CS[C@H]12)c1csc(N)n1)C(=O)O` [CEFTAZIDIME] here?
The MIC was greater than 512 µg/mL.

Which MIC does the source give for `C[C@@H](O)[C@H]1C(=O)N2C(C(=O)O)=C(SCCNC=N)C[C@H]12` [IMIPENEM ANHYDROUS] here?
The MIC was 4 µg/mL (≈ 13.4 µM).

For `NC[C@H]1O[C@H](O[C@H]2[C@H](O)[C@@H](O[C@H]3O[C@H](CO)[C@@H](O)[C@H](N)[C@H]3O)[C@H](N)C[C@@H]2N)[C@H](O)[C@@H](O)[C@@H]1O` [KANAMYCIN], which MIC is on record?
The MIC was 128 µg/mL (≈ 264 µM).

`C[C@@H](O)[C@H]1C(=O)N2C(C(=O)O)=C(S[C@@H]3CN[C@H](C(=O)N(C)C)C3)[C@H](C)[C@H]12` [MEROPENEM] was tested. Which MIC did it give?
Its MIC is 6 µg/mL (≈ 15.6 µM).

`CO[C@@]1(NC(=O)C(C(=O)O)c2ccc(O)cc2)C(=O)N2C(C(=O)O)=C(CSc3nnnn3C)CO[C@@H]21` (some centres undefined) [MOXALACTAM] was tested. Which MIC did it give?
The MIC was greater than 16 µg/mL.

For `CCn1cc(C(=O)O)c(=O)c2ccc(C)nc21` [NALIDIXIC ACID], which MIC is on record?
Its MIC is greater than 64 µg/mL.

Test system: Escherichia coli
Experiment: Antimicrobial activity against Escherichia coli J53 harboring beta-lactamase TEM-1, SHV-12 and Oxa-9 by Etest
Type: functional

`CC(C)(O/N=C(\C(=O)N[C@@H]1C(=O)N2C(C(=O)[O-])=C(C[n+]3ccccc3)CS[C@H]12)c1csc(N)n1)C(=O)O` [CEFTAZIDIME] was tested. Which MIC did it give?
Its MIC is 64 µg/mL (≈ 117 µM).

With `C[C@@H](O)[C@H]1C(=O)N2C(C(=O)O)=C(SCCNC=N)C[C@H]12` [IMIPENEM ANHYDROUS] as the compound, how does the MIC read?
Its MIC is less than 1 µg/mL.

With `CO[C@@]1(NC(=O)C(C(=O)O)c2ccc(O)cc2)C(=O)N2C(C(=O)O)=C(CSc3nnnn3C)CO[C@@H]21` (some centres undefined) [MOXALACTAM] as the compound, how does the MIC read?
The MIC was less than 0.5 µg/mL.

Test system: Escherichia coli
Experiment: Antimicrobial activity against Escherichia coli J53 harboring beta-lactamase Oxa-48 by Etest
Type: functional

How did the MIC turn out when `CC(C)(O/N=C(\C(=O)N[C@@H]1C(=O)N2C(C(=O)[O-])=C(C[n+]3ccccc3)CS[C@H]12)c1csc(N)n1)C(=O)O` [CEFTAZIDIME] was run?
Its MIC is 1 µg/mL (≈ 1.83 µM).

For `C[C@@H](O)[C@H]1C(=O)N2C(C(=O)O)=C(SCCNC=N)C[C@H]12` [IMIPENEM ANHYDROUS], which MIC is on record?
Its MIC is 0.5 µg/mL (≈ 1.67 µM).

For `C[C@@H](O)[C@H]1C(=O)N2C(C(=O)O)=C(S[C@@H]3CN[C@H](C(=O)N(C)C)C3)[C@H](C)[C@H]12` [MEROPENEM], which MIC is on record?
Its MIC is 0.12 µg/mL (≈ 0.313 µM).

`CO[C@@]1(NC(=O)C(C(=O)O)c2ccc(O)cc2)C(=O)N2C(C(=O)O)=C(CSc3nnnn3C)CO[C@@H]21` (some centres undefined) [MOXALACTAM] was tested. Which MIC did it give?
The MIC was 2 µg/mL (≈ 3.84 µM).

Test system: Escherichia coli
Experiment: Antimicrobial activity against Escherichia coli J53 by Etest
Type: functional

`CC(C)(O/N=C(\C(=O)N[C@@H]1C(=O)N2C(C(=O)[O-])=C(C[n+]3ccccc3)CS[C@H]12)c1csc(N)n1)C(=O)O` [CEFTAZIDIME] was tested. Which MIC did it give?
The MIC was 1 µg/mL (≈ 1.83 µM).

For `C[C@@H](O)[C@H]1C(=O)N2C(C(=O)O)=C(S[C@@H]3CN[C@H](C(=O)N(C)C)C3)[C@H](C)[C@H]12` [MEROPENEM], which MIC is on record?
The MIC was less than 1 µg/mL.

How did the MIC turn out when `CO[C@@]1(NC(=O)C(C(=O)O)c2ccc(O)cc2)C(=O)N2C(C(=O)O)=C(CSc3nnnn3C)CO[C@@H]21` (some centres undefined) [MOXALACTAM] was run?
The MIC was 1 µg/mL (≈ 1.92 µM).

Test system: Escherichia coli
Experiment: Antimicrobial activity against Escherichia coli J53 harboring beta-lactamase TEM-1, CTX-M-15 and Oxa-1 by Etest
Type: functional

Which MIC does the source give for `CC(C)(O/N=C(\C(=O)N[C@@H]1C(=O)N2C(C(=O)[O-])=C(C[n+]3ccccc3)CS[C@H]12)c1csc(N)n1)C(=O)O` [CEFTAZIDIME] here?
Its MIC is 128 µg/mL (≈ 234 µM).

With `C[C@@H](O)[C@H]1C(=O)N2C(C(=O)O)=C(SCCNC=N)C[C@H]12` [IMIPENEM ANHYDROUS] as the compound, how does the MIC read?
Its MIC is less than 1 µg/mL.

`CO[C@@]1(NC(=O)C(C(=O)O)c2ccc(O)cc2)C(=O)N2C(C(=O)O)=C(CSc3nnnn3C)CO[C@@H]21` (some centres undefined) [MOXALACTAM] was tested. Which MIC did it give?
Its MIC is less than 0.5 µg/mL.

Test system: Klebsiella pneumoniae
Experiment: Antimicrobial activity against Klebsiella pneumoniae isolate 21 expressing beta-lactamase Oxa-48, TEM-1 and Oxa-9 by Etest
Type: functional

How did the MIC turn out when `CC(C)(O/N=C(\C(=O)N[C@@H]1C(=O)N2C(C(=O)[O-])=C(C[n+]3ccccc3)CS[C@H]12)c1csc(N)n1)C(=O)O` [CEFTAZIDIME] was run?
Its MIC is 2 µg/mL (≈ 3.66 µM).

How did the MIC turn out when `C[C@@H](O)[C@H]1C(=O)N2C(C(=O)O)=C(SCCNC=N)C[C@H]12` [IMIPENEM ANHYDROUS] was run?
The MIC was 8 µg/mL (≈ 26.7 µM).

Test system: Klebsiella pneumoniae
Experiment: Antimicrobial activity against Klebsiella pneumoniae isolate 11 expressing beta-lactamase Oxa-48, TEM-1 and Oxa-1 by Etest
Type: functional

`CC(C)(O/N=C(\C(=O)N[C@@H]1C(=O)N2C(C(=O)[O-])=C(C[n+]3ccccc3)CS[C@H]12)c1csc(N)n1)C(=O)O` [CEFTAZIDIME] was tested. Which MIC did it give?
The MIC was 2 µg/mL (≈ 3.66 µM).

For `C[C@@H](O)[C@H]1C(=O)N2C(C(=O)O)=C(SCCNC=N)C[C@H]12` [IMIPENEM ANHYDROUS], which MIC is on record?
Its MIC is 8 µg/mL (≈ 26.7 µM).

Test system: Klebsiella pneumoniae
Experiment: Antimicrobial activity against Klebsiella pneumoniae containing PFGE clone A expressing beta-lactamase Oxa-48, TEM-1, SHV-12 and Oxa-9 by Etest
Type: functional

`CC(C)(O/N=C(\C(=O)N[C@@H]1C(=O)N2C(C(=O)[O-])=C(C[n+]3ccccc3)CS[C@H]12)c1csc(N)n1)C(=O)O` [CEFTAZIDIME] was tested. Which MIC did it give?
The MIC was greater than 512 µg/mL.

With `C[C@@H](O)[C@H]1C(=O)N2C(C(=O)O)=C(SCCNC=N)C[C@H]12` [IMIPENEM ANHYDROUS] as the compound, how does the MIC read?
Its MIC is 4 µg/mL (≈ 13.4 µM).

`NC[C@H]1O[C@H](O[C@H]2[C@H](O)[C@@H](O[C@H]3O[C@H](CO)[C@@H](O)[C@H](N)[C@H]3O)[C@H](N)C[C@@H]2N)[C@H](O)[C@@H](O)[C@@H]1O` [KANAMYCIN] was tested. Which MIC did it give?
The MIC was greater than 256 µg/mL.

For `C[C@@H](O)[C@H]1C(=O)N2C(C(=O)O)=C(S[C@@H]3CN[C@H](C(=O)N(C)C)C3)[C@H](C)[C@H]12` [MEROPENEM], which MIC is on record?
The MIC was greater than 32 µg/mL.

Which MIC does the source give for `CO[C@@]1(NC(=O)C(C(=O)O)c2ccc(O)cc2)C(=O)N2C(C(=O)O)=C(CSc3nnnn3C)CO[C@@H]21` (some centres undefined) [MOXALACTAM] here?
The MIC was greater than 16 µg/mL.

`CCn1cc(C(=O)O)c(=O)c2ccc(C)nc21` [NALIDIXIC ACID] was tested. Which MIC did it give?
The MIC was greater than 64 µg/mL.
